In US12090166B2, “Pharmaceutical composition for preventing or treating dentin-dental pulp disease or periodontal disease, containing LPAR2 inhibitor” (PUSAN NATIONAL UNIVERSITY INDUSTRY-UNIVERSITY COOPERATION …, priority 2018, dated 2024):
“Also recorded” adds a separate entry of the source.

Columns and labels:
[1] = test system: human-derived dental pulp stem cells; test: Extracellular matrix calcification by Alizarin Red S staining during bone differentiation; assay type: cell-based; conditions: for calcification (Alizarin Red S staining): 0, 1, 5 and 1.0 μM/ml in bone differentiation induction medium
Experimental: Human-derived dental pulp stem cells (4×10^5 cells/ml) were cultured in Miltenyi Stem MACS MSC Expansion Media Kit XF medium containing 100 μg/ml streptomycin and 100 μg/ml penicillin, followed by culturing in bone differentiation induction medium (10% fetal bovine serum, […] dexamethasone, 10 mM β-glycerophosphate, and 50 mM ascorbic acid). Beck 35 (LPAR2 inhibitor) and LPA were added to the bone differentiation induction medium at various concentrations (0, 1, 5 and 1.0 μM/ml). […] In order to quantify the degree of staining, the absorbance was measured at 562 nm after dissolving in 10% (WN) cetylpyridinium chloride and 10 mM sodium phosphate (pH 7.0) solution.
Human-derived dental pulp stem cells (4×10^5 cells/ml) were cultured in Miltenyi Stem MACS MSC Expansion Media Kit XF medium containing 100 μg/ml streptomycin and 100 μg/ml penicillin, and differentiation was induced for 14 days by changing to the bone differentiation induction medium. To the bone differentiation induction medium, RP10-83, an agonist of LPAR2 and H2L5186303, an antagonist of LPAR2 were added at various concentrations (0, 1, and 10 μM/ml). The cells in which bone differentiation was induced were washed twice with PBS, fixed with 70% ethanol at 4° C. for 1 hour, stained with 40 mM Alizarin Red S (pH 4.2, Sigma Co.) solution for 10 minutes, and then washed with distilled water sufficiently. In order to quantify the degree of staining, the absorbance was measured at 562 nm after dissolving in a 10% (WN) cetylpyridinium chloride and 10 mM sodium phosphate (pH 7.0) solution.
Human-derived dental pulp stem cells (4×10^5 cells/ml) were cultured in a growth medium without antibiotics. 50 nM of LPAR2 si-RNA was transfected using jetPRIME (Polyplus Transfection) according to the manufacturers protocol. As a control, non-targeting siRNA (SEQ ID NO: 1: […]) was transfected. The differentiation of the cells was induced for 7 days after changing to bone differentiation induction medium. […]

tooth germ mesenchyme = test: Real-time PCR analysis of in vitro cultured tooth germ mesenchyme; assay type: cell-based, mouse; conditions: 24 hours, 5 μM, vs control group
Experimental: (§1) Experimental animals were carried out using mouse ICR-based male 8 week-old mice. After anesthesia is performed by administering intraperitoneally Zoletil (Virbac, Carros, France) and Rompun (Bayer, Berlin, Germany), which are anesthetic inducing agents according to the weight, an experiment was conducted to expose the pulp cavity for the maxillary right first molars. To confirm the change in gene expression, an experiment was conducted on the developing 14th day pregnant embryo. ICR-based female mice whose pregnancy was confirmed were sacrificed in the morning of the 14th day after pregnancy, and then embryos were obtained and the tooth germ of the lower jaw was finely dissected under a stereoscopic microscope, and the tooth germ tissue was placed on the lid of a 35 mm diameter Petri dish for experimentation together with the culture solution and cultured in a 5% carbon dioxide incubator at 37° C. for 24 hours with or without Beck 35 drug administration.
In order to confirm the change in gene expression by Beck 35 drugs, in vitro culture was performed by microdissecting the tooth germ at the 14th day of the embryonic period, and the group treated with the drug for 24 hours was set as the experimental group, and the untreated tissue was set as the control group, and changes in gene expression were confirmed by real-time PCR analysis. After RNA was obtained from the cultured tissue, the first strand cDNA was synthesized and the expression level was confirmed by real-time PCR for genes known to be important for dentin formation until now.

[2] = test system: human-derived dental pulp stem cells; test: Electron microscope analysis after bone differentiation; assay type: cell-based; conditions: bone differentiation medium with vs without Beck 35
Experimental: As in Example 2-2, human-derived dental pulp stem cells were cultured in a culture medium for inducing bone differentiation with or without Beck 35, an inhibitor of LPAR2, to induce bone differentiation, and then observed by an electron microscope.

[3] = test system: dental papilla mesenchyme; test: Real-time PCR analysis of in vitro cultured dental papilla mesenchyme; assay type: cell-based, mouse; conditions: 24 hours, vs control group
Experimental: as §1
In order to confirm the change in gene expression by Beck 35 drugs, in vitro culture was performed by microdissecting the tooth germ at the 14th day of the embryonic period, and the group treated with the drug for 24 hours was set as the experimental group, and the untreated tissue was set as the control group, and changes in gene expression were confirmed by real-time PCR analysis. […]

[4] = test system: human-derived dental pulp stem cells; test: Real-time PCR analysis of differentiation genes; assay type: cell-based; conditions: 1 μM once every 3 days, 7 days in bone differentiation medium
Experimental: As in Example 2-2, human-derived dental pulp stem cells were differentiated for 7 days, 14 days and 21 days in a bone differentiation induction culture medium. Beck 35 was added to the bone differentiation medium at a concentration of 1 μM once every 3 days to differentiate for a week. Those maintained with the human-derived dental pulp stem cells, induced differentiation for 7 days, 14 days and 21 days with bone differentiation medium, and induced differentiation for 7 days in bone differentiation medium containing Beck 35 was used to isolate total RNA with Trisure (Bioline, UK) and reverse transcription to cDNA was performed using HelixCript™ Thermo Reverse Transcriptase (NanoHelix, Korea, Daejeon, Korea). The synthesized cDNA was performed using the primers of Table 1 and Power SYBR Green PCR Master Mix. The data analysis was determined using the delta Ct method.

[5] = test system: exposed pulp cavity of mouse molars; test: Pulp cavity exposure animal model (H&E, MTC, micro-CT, immunohistochemistry); assay type: in vivo
Experimental: as §1, with “After” for “Experimental animals were carried out using mouse ICR-based male 8 week-old mice. After”
In order to prepare tissue sections, mice were sacrificed after a certain experimental period in the experimental group and the control group, fixed in 4% paraformaldehyde, washed with phosphate buffer solution, and demineralized in 0.1 M EDTA chelate solution. Demineralization proceeded for 4 weeks, and after demineralization, it was embedded in wax, cut to a thickness of 7 micrometers, and smeared on a glass slide to perform conventional hematoxylin and eosin staining.
MTC staining was performed to confirm the synthesis of collagen protein and formation of mineralized tissue. After staining the nucleus with hematoxylin for the tissue on the glass slide produced through the normal tissue sectioning process and if the entire tissue is stained with a mixed dyeing solution designed to perform cytoplasmic staining with biebrich scarlet and muscle fibers staining with acid fuchsin, all of collagen fibers, muscle fibers and cytoplasm can be observed by staining red.
Microcomputerized tomography was performed to confirm the hard tissue regenerated by the drug. The lower jaw tissue fixed in 4% paraformaldehyde was observed using Skyscan1272 (Bruker, Kontich, Belgium), and 2 micrometers pixels were photographed at 4904×3280 resolution for the entire 360 degree, and the image was reconstructed in 3D with a data viewer and then the degree of hard tissue formation was objectively analyzed by analyzing with the CTAn (Bruker) program.
While observing the oral cavity of anesthetized mice under a stereoscopic microscope, a pulp cavity exposure experiment was performed on the upper right first molar, and the left upper first molar was used as a untreated control. While observing with a stereoscopic microscope, using a round burr having 0.6 mm diameter connected to a high-speed handpiece, the enamel and dentin was exposed to be perpendicular to the occlusal surface, and when necessary, water was sprayed to minimize tissue damage. Afterwards, the Beck 35 drug was mounted on Pluronic F127 and delivered to the exposed pulp cavity. Only Pluronic F127 was delivered to confirm as a control. After the delivery of the Beck 35 drug to the pulp cavity, the doubly exposed pulp cavity was covered with Dycal (Dentsply Caulk, Milford, DE) and a […] composite resin. Thereafter, on the 3rd, 5th and 42nd days, the changes were confirmed by histological and microcomputed tomography techniques.
To confirm the expression of the protein, the expression pattern of NESTIN, a protein specific for odontoblasts, was confirmed by immunohistochemistry using tissue sections from the control and treatment groups. The expression of the protein was confirmed based on the antigen-antibody reaction, and the positive reaction of the protein was confirmed as brown with 3,3′-diaminobenzidine.

[6] = test system: human-derived dental pulp stem cells; test: Cell viability measurement (MTT method); assay type: cell-based; conditions: 24 hours; for proliferation of human-derived dental pulp stem cells (cell viability, MTT): expansion medium, vs control
Experimental: Cell viability measurement was evaluated by the 3-(4,5-dimethylthiazol-2-yl)-2,5-diphenyl-2H-tetrazolium bromide (MTT) method. Human-derived dental pulp stem cells were coated with 0.2% gelatin one day before culture. On the day of incubation, 0.2% gelatin was removed from the 48-well plate and washed once with PBS. In 48-well plates, human-derived dental pulp stem cells (4×10^5 cells/ml) were cultured in Miltenyi Stem MACS MSC Expansion Media Kit XF medium containing 100 μg/ml streptomycin and 100 μg/ml penicillin. Beck 35 was evaluated at various concentrations (0, 0.1, 1 and 1.0 μg/ml) for 24 hours at 37° C. in an atmosphere of 5% CO2 and 95% humidity. Then, the cells were incubated with 0.5 mg/ml MTT (SIGMA, USA) for 3 hours, and the reaction was stopped by adding dimethyl sulfoxide (DMSO, JUNSEL, Japan). Results were obtained at 560 nm using an ELISA reader. The cell viability of the control cells was used as a 100% control value.
In addition, human-derived dental pulp stem cells were cultured in bone differentiation inducing medium (10% fetal bovine serum, […] dexamethasone, 10 mM β-glycerophosphate and 50 mM ascorbic acid) for 24 hours to induce the differentiation and various concentrations (1, 5 and 1.0 μM/ml) of Beck 35 were treated during differentiation.

[7] = after 3 and 5 days, vs control group
[8] = after 42 days, vs control group

Cc1csc2c(N[C@@H](C)CN3CCN(S(=O)(=O)c4ccc(Cl)c(Cl)c4)CC3)ncnc12 [Beck 35]
calcification (Alizarin Red S staining) [1]: promoted the calcification in a concentration-dependent manner | expression of Axin2 (Wnt signaling) (tooth germ mesenchyme): reduced | expression of Bmp2 (tooth germ mesenchyme): reduced | expression of Bmp4 (tooth germ mesenchyme): reduced | expression of Bmp6 (tooth germ mesenchyme): reduced | expression of Bmp7 (tooth germ mesenchyme): reduced | expression of Lef1 (Wnt signaling) (tooth germ mesenchyme): reduced | expression of beta-Catenin (Wnt signaling) (tooth germ mesenchyme): reduced | cell morphology by electron microscope [2]: relatively long-shaped cells | expression of Bmp6 [3]: increased | overall gene expression [3]: overall gene expression increased | expression level of DMP-1 (dentin matrix protein 1) [4]: Increased | expression level of DSPP (dentin sialophosphoprotein) [4]: Increased | expression level of Runx2 (runt-related transcription factor 2) [4]: Increased | expression level of osteopontin [4]: Increased | blood vessel distribution (MTC staining) ([5]; 3 and 5 days later): same blood vessel distribution as the HE staining result | number of cells in which the inflammatory cells and the nucleus were thickly condensed (MTC staining) ([5]; 3 and 5 days later): small | dentin bridge formation (micro-CT) ([5]; 42 days after pulp cavity exposure, vs control group): dentin bridge was formed; also recorded: perfect dentin bridge was regenerated | dentin regeneration, morphological ([5]; Beck 35 5 μM in exposed pulp cavity, maxillary molar of 8-week-old B6 mice): perfectly formed dentin bridge | NESTIN expression in pulp cavity periphery (immunohistochemistry) [5, 7]: more positive reactions | RUNX2 expression in pulp cavity periphery (immunohistochemistry) [5, 7]: more positive reactions | blood vessels in pulp cavity (H&E) [5, 7]: more tissues were observed as blood vessels | staining of cell nuclei in the pulp cavity (H&E) [5, 7]: stained lighter than the control group | formation of calcified dentin bridge (MTC staining) [5, 8]: formation of calcified dentin bridge was confirmed | formation of dentin bridge (H&E) [5, 8]: formation of dentin bridge was clearly observed | new collagen fibers in pulp cavity (HE and MTC staining) ([5]; after treating exposed pulp cavity): new collagen fibers seen as pulp cavity internal tissue were confirmed | number of inflammatory cells (H&E) ([5]; treatment group vs control group): in the control group, the number of inflammatory cells was observed higher than that of the treatment group | staining of enamel matrix ([5]; vs control group (dispersed and pale dyed)): dyed dark red | proliferation of human-derived dental pulp stem cells (cell viability, MTT) ([6]; 10 μM/ml): promoted the proliferation | proliferation of human-derived dental pulp stem cells (cell viability, MTT) ([6]; 0.1 and 1 μM/ml): not different from the control | proliferation of human dental pulp stem cells during differentiation ([6]; 1, 5 and 1.0 μM/ml, bone differentiation inducing medium): inhibited the proliferation

O=C(O)/C=C\C(=O)Nc1ccc(Oc2cccc(Oc3ccc(NC(=O)/C=C\C(=O)O)cc3)c2)cc1 [H2L5186303]
bone differentiation (Alizarin Red S staining) ([1]; 0, 1, and 10 μM/ml, differentiation induced for 14 days): promoted bone differentiation

lysophosphatidic acid [LPA]
calcification (Alizarin Red S staining) [1]: did not undergo the calcification
